This note sets out measurements from ChEMBL document CHEMBL1201862, “PubChem BioAssay data set” (2004).

Assay [1] in a line: A549 cell cytotoxicity, dose response, cytotoxicity control, plate reader, cherry-pick, antagonist series (AID 743412). Format: functional, cell-based.
Assay [2] in a line: LGR2 antagonists, dose response, cell-based, HEK293, CRE-luciferase reporter, cherry pick, set 2 (AID 743343).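 Note: transfected cells were stimulated with diluted bursicon conditioned medium after compound addition.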 Format: functional. A general note: In a reporter assay the amount or activity of a reporter protein is the signal.
Assay [3] can be described thus: MC4R antagonists, dose response, counter-screen for LGR2 antagonist project, cell-based, plate reader, cherry pick (AID 743444).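 Note: transfected HEK 293 cells stimulated with alpha-MSH peptide; potency of inhibitors of the alpha-MSH evoked signal.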 Format: functional.
A short description of assay [4]: HepG2 cell cytotoxicity, dose response, cytotoxicity control, plate reader, cherry-pick, antagonist series (AID 743416). Format: functional, cell-based.
The target of assay [5] is T1, Bcl-2-related protein A1 (Mus musculus, UniProt Q07440).
T1 sequence (Q07440 whole entry): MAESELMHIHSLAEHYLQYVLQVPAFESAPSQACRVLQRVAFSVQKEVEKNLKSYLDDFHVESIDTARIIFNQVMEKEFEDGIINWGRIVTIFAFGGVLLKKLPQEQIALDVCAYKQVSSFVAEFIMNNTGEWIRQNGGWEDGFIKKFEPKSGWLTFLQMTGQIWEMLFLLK
Kind of assay: Bfl-1 binding inhibitors, SAR follow-up, biochemical, fluorescence polarization (AID 1070). (Fluorescence polarisation rises when a labelled molecule tumbles more slowly, as on binding a larger partner.)

For assay [6], the target named is T1, Bcl-2-related protein A1. Description: Bfl-1 inhibitors blocking BH3 peptide binding, confirmation, biochemical, TR-FRET, mouse Bfl-1 (AID 621).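 Note: TR-FRET binding of GST-Bfl-1 to FITC-labelled Bid peptide via terbium antibody.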 On the technique in general: In TR-FRET formats the signal depends on donor and acceptor labels being close together.
Assay [7] concerns the target Neuropeptide Y receptor type 2 (Homo sapiens, UniProt P49146). Format: functional, cell-based.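 Note: HEK293 cells expressing the receptor and a CNG channel; stimulus was NPY near EC95 followed by isoproterenol to raise cAMP; antagonist potency measured as restoring cAMP signal that NPY suppresses.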
In assay [8] the target is Neuropeptide Y receptor type 1 (Homo sapiens, UniProt P25929). Format: functional.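 Note: HEK293 cells with a CNG channel challenged with NPY then isoproterenol; potency as antagonist that reverses NPY suppression of cAMP signal.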
For assay [9], the target named is T2, Probable nicotinate-nucleotide adenylyltransferase (Staphylococcus aureus (strain N315), UniProt P65502). Format: functional, Staphylococcus aureus subsp. aureus N315. As to conditions: read-out: IC50_Mean.
Assay [10] has as its target T2, Probable nicotinate-nucleotide adenylyltransferase. Format: functional, Staphylococcus aureus subsp. aureus N315.
The target in assay [11] is Paired box protein Pax-8 (Homo sapiens, UniProt Q06710). Kind of assay: inhibitors of PAX8-driven TPO luciferase reporter, dose response, RMG-I cells, cherry-pick (AID 687027).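 Note: luciferase reporter driven by Pax8 target thyroperoxidase promoter measured by SteadyGlo luminescence.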 Format: functional, cell-based.
For assay [12], the target named is Glucose-6-phosphate 1-dehydrogenase (Homo sapiens, UniProt P11413). Kind of assay: human G6PD enzyme inhibitors, dose response, selectivity assay for P. falciparum G6PD inhibitor project, biochemical, fluorescence (AID 504792). Format: functional.
Assay [13] concerns the target T3, Sphingosine 1-phosphate receptor 3 (Homo sapiens, UniProt Q99500). Kind of assay: Dose response cell-based high throughput screening assay for antagonists of the Sphingosine 1-Phosphate Receptor 3 (S1P3). [Related pubchem assays: 1429, 485 ]. Format: functional.
Assay [14] addresses 5-hydroxytryptamine receptor 1E (Homo sapiens, UniProt P28566). Description: Counterscreen assay for S1P3 antagonists: Dose response cell-based high throughput screening assay to identify antagonists of the 5-Hydroxytryptamine Receptor Subtype 1E (5HT1E). [Related pubchem assays: 1429, 485 ]. Format: functional.
Assay [15] in a line: A High Throughput Confirmatory Assay used to Identify Novel Compounds that Inhibit Mycobacterium Tuberculosis in the absence of Glycerol. Format: functional.
For assay [16], the target named is Cytochrome P450 2C9 (Homo sapiens, UniProt P11712). As to conditions: Potency.
For assay [17], the target named is Cytochrome P450 2C19 (Homo sapiens, UniProt P33261). Kind of assay: qHTS Assay for Inhibitors and Substrates of Cytochrome P450 2C19. [Related pubchem assays: 410 ]. Format: ADME. As to conditions: read-out: Potency.
Assay [18] has as its target Large T antigen (Simian virus 40, UniProt P03070). Format: functional, Betapolyomavirus macacae.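 Note: Confirmatory-stage PubChem screen for compounds that inhibit SV40 T antigen.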
The target of assay [19] is T4, Mannose-6-phosphate isomerase (Homo sapiens, UniProt P34949).
T4 sequence (P34949 whole entry): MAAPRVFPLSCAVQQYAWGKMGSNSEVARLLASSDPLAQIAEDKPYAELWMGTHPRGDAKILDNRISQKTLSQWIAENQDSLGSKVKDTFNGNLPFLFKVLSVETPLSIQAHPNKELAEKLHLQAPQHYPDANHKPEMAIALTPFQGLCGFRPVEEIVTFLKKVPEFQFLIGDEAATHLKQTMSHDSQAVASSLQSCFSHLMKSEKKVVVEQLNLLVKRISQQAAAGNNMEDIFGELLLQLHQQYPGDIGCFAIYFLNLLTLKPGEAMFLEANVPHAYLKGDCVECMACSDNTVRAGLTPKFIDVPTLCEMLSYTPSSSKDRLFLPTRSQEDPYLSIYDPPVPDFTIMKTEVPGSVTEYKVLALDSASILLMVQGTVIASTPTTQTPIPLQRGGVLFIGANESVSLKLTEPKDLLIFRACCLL
Kind of assay: inhibitors of human PMI, primary screen, biochemical, fluorescence intensity, coupled assay (AID 1209).

Assay [20] in a line: THP-1 cell cytotoxicity, dose response, cytotoxicity control for Vif-APOBEC3G degradation inhibitor project, THP-1 cells (AID 1117359). The settings on record: Human immunodeficiency virus 1, THP-1. Format: functional.
Assay [21] deals with T3, Sphingosine 1-phosphate receptor 3. Description: Dose Response Cell-Based Assay for Agonists of the Sphingosine 1-Phosphate Receptor 3 (S1P3): Purchased Analogues. [Related pubchem assays: 373, 439 ]. Format: functional.
Assay [22] concerns the target T5, Sphingosine 1-phosphate receptor 2 (Homo sapiens, UniProt O95136). Kind of assay: Dose Response Cell-Based Assay for Agonists of the Sphingosine 1-Phosphate Receptor 2 (S1P2): Purchased Analogues. [Related pubchem assays: 1192, 373, 439 ]. Format: functional.
For assay [23], the target named is Sphingosine 1-phosphate receptor 1 (Homo sapiens, UniProt P21453). Description: Dose Response Cell-Based Assay for Agonists of the Sphingosine 1-Phosphate Receptor 1 (S1P1): Purchased Analogues. [Related pubchem assays: 1192, 373, 439 ]. Format: functional.
The target in assay [24] is Photoreceptor-specific nuclear receptor (Homo sapiens, UniProt Q9Y5X4). Kind of assay: NR2E3 inverse agonists, dose response, biochemical, TR-FRET (AID 463256). Format: functional.
Assay [25] concerns the target Peroxisome proliferator-activated receptor gamma/Nuclear receptor corepressor 2 (Homo sapiens, UniProt P37231+Q9Y618). Description: Counterscreen for NR2E3 inverse agonists: TR-FRET-based biochemical high throughput dose response assay to identify inverse agonists of the interaction between peroxisome proliferator-activated receptor gamma (PPARg) and nuclear receptor co-repressor 2 (NCOR2). Format: functional.

The nature of assay [26]: Luminescence Cell-Based Dose Retest to Confirm Inhibitors of Cancer Stem Cells. [Related pubchem assays (depositor defined):AID2717, AID2721]. Format: functional. As to conditions: Homo sapiens.
Assay [27] in a line: Luminescence-based dose response cell-based high throughput screening assay for cytotoxic compounds using the IEC-6 intestinal epithelial cell line. [Related pubchem assays: 1858 (Summary AID.), 1825 (Counterscreen.), 1907 (Confirmation screen.)]. Format: functional.
A short description of assay [28]: cytotoxicity in HEK-293T cells, dose response, cytotoxicity control for TCR NF-kB inhibitor project, luminescence, T-cell screen hits (AID 489026).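 Note: cells exposed to compound about 14 hours before the viability readout.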 Format: functional, cell-based.
The target in assay [29] is Lytic switch protein BZLF1 (Epstein-Barr virus (strain B95-8) (HHV-4) (Human herpesvirus 4), UniProt P03206). Kind of assay: EBV ZTA inhibitors, dose response, counter-screen for EBNA-1 inhibitor project, biochemical, fluorescence polarization, Epstein-Barr virus, 1536-well (AID 2377).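 Note: fluorescence polarization of Cy5-labelled ZRE DNA probe bound by purified Zta.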 Details: species or system human gammaherpesvirus 4.
Assay [30] concerns the target Epstein-Barr nuclear antigen 1 (Epstein-Barr virus (strain B95-8) (HHV-4) (Human herpesvirus 4), UniProt P03211). Kind of assay: EBNA-1 inhibitors, dose response, biochemical, fluorescence polarization, 1536-well (AID 2381).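 Note: fluorescence polarization of a Cy5 DNA probe bound by EBNA-1 protein.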 Details: species or system human gammaherpesvirus 4.
Assay [31] relates to Vero. Kind of assay: host cell cytotoxicity of antiviral hits, dose response, cytotoxicity control for West Nile virus antiviral project, secondary assay (AID 1650). The settings on record: Chlorocebus sabaeus. Format: functional.
A short description of assay [32]: inhibitors of intracellular T. cruzi replication, confirmation, NIH3T3 host cells, beta-gal luminescence (AID 2044).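 Note: intracellular parasites grown in NIH/3T3 mouse fibroblasts as host cells; luminescent beta-galactosidase reporter signal from transgenic T. cruzi replicating inside host cells; inhibitors lower the luminescence signal.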 Format: functional, cell-based.
Assay [33] in a line: cytotoxicity toward NIH3T3 fibroblasts, dose response, counter-screen, cell-based, ATP luminescence, mouse fibroblasts (AID 2010).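 Note: cells exposed to compound for about 90 hours before reading.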 Format: functional.
The test system of assay [34] is Vero. Kind of assay: cells. The settings on record: Chlorocebus sabaeus. Format: functional.
Assay [35] can be described thus: cells.
Assay [36] has as its target T5, Sphingosine 1-phosphate receptor 2. Kind of assay: Dose Response Cell Based Assay for Agonists of the S1P2 Receptor of Purchased Analogues. [Related pubchem assays: 729, 843, 854, 736 ]. Format: functional.
The nature of assay [37]: inhibitors of Bluetongue virus cytopathic effect, confirmation, arbovirus, BSR cells (AID 1250).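 Note: protection from viral cytopathic effect measured as cell viability by ATP luminescence.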 Format: functional.

The source made the active and inactive calls.
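Throughout, for IC50 Mean: confirmatory dose-response retesting of NadD inhibitor hits first found in an ultra-high-throughput screen.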

T2 sequence (P65502 whole entry): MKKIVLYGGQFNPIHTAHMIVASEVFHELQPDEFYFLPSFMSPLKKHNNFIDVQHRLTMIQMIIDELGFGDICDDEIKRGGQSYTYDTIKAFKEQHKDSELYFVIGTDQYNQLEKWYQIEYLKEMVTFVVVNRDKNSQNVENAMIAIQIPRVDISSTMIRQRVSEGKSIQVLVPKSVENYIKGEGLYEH
T3 sequence (Q99500 whole entry): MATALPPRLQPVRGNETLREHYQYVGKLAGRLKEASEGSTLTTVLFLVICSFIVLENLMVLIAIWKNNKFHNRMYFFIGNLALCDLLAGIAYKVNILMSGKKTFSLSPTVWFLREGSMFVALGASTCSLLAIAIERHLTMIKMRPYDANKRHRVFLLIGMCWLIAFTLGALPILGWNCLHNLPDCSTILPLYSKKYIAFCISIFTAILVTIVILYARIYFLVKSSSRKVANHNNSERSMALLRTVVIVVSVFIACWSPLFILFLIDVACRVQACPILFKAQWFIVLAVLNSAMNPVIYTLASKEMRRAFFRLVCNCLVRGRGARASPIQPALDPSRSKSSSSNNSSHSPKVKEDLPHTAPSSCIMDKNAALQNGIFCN
T5 sequence (O95136 whole entry): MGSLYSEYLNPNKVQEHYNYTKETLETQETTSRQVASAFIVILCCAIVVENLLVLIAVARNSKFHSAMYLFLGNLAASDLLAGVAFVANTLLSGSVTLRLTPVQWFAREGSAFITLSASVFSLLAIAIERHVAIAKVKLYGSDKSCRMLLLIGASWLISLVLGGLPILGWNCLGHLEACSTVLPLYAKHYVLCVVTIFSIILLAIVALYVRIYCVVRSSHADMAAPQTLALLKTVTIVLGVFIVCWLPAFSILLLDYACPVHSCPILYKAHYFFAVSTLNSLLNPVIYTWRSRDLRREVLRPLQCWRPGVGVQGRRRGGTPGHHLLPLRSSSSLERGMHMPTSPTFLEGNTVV
Sequence of Cytochrome P450 2C19 (P33261 whole entry): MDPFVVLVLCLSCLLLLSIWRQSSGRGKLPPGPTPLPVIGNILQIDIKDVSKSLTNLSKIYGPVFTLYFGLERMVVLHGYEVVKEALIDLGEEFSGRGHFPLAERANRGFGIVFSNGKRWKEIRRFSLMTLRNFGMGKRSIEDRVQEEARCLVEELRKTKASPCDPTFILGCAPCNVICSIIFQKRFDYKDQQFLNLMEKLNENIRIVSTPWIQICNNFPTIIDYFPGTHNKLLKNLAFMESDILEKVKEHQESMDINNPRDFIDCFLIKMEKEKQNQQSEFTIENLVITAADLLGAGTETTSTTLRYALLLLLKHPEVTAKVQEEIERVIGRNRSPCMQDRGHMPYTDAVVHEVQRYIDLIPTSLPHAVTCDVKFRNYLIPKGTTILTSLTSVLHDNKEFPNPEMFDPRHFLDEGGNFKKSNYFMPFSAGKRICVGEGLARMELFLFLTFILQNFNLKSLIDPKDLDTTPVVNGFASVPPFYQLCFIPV
Sequence of Neuropeptide Y receptor type 2 (P49146 whole entry): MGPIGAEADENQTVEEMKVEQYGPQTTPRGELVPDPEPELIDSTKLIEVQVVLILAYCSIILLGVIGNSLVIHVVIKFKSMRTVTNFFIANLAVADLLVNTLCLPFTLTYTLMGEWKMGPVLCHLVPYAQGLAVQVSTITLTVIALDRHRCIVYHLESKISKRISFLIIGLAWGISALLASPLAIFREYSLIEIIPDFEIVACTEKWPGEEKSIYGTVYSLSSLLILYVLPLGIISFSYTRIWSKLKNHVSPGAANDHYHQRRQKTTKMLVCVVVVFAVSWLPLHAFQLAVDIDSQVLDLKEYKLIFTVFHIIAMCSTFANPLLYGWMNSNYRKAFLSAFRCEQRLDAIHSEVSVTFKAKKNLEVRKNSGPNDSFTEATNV
Sequence of 5-hydroxytryptamine receptor 1E (P28566 whole entry): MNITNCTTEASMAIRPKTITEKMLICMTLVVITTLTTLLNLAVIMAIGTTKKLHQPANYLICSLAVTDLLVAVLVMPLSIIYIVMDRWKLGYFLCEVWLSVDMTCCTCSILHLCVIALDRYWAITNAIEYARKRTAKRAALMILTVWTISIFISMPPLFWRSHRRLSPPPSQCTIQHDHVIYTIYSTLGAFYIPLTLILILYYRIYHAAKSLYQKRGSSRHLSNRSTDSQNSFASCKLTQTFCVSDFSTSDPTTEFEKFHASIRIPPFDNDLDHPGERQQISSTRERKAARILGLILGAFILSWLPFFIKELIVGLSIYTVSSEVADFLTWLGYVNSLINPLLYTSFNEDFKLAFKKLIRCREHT
Sequence of Glucose-6-phosphate 1-dehydrogenase (P11413 whole entry): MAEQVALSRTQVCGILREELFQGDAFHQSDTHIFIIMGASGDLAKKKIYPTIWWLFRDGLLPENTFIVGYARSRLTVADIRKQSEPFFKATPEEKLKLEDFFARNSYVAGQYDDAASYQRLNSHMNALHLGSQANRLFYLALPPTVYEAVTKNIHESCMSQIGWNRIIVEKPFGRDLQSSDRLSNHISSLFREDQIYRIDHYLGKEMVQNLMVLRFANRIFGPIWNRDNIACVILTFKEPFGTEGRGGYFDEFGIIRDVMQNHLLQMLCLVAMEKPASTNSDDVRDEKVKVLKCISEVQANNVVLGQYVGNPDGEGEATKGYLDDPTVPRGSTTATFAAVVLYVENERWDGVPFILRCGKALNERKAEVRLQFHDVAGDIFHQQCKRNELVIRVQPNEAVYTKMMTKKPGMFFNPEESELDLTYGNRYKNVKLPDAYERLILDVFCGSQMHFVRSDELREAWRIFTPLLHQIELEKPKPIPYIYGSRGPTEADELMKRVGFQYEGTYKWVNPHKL
Sequence of Epstein-Barr nuclear antigen 1 (P03211 whole entry): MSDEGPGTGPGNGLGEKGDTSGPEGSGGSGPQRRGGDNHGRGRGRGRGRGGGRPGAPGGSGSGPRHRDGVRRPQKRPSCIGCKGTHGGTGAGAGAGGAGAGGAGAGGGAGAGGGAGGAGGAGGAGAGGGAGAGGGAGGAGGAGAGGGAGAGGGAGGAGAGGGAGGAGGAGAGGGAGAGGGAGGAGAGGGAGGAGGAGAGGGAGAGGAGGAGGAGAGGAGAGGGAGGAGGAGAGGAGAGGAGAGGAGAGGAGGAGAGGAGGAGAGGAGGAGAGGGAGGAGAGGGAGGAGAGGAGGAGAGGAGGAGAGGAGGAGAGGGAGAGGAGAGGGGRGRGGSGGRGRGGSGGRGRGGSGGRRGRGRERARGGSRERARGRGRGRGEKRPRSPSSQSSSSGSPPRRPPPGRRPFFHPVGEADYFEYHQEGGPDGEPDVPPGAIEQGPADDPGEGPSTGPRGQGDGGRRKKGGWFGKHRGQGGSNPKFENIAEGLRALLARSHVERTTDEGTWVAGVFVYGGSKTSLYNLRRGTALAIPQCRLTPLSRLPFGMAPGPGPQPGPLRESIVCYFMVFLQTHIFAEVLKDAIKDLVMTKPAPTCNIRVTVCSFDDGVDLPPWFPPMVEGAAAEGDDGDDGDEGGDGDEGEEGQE
Sequence of Sphingosine 1-phosphate receptor 1 (P21453 whole entry): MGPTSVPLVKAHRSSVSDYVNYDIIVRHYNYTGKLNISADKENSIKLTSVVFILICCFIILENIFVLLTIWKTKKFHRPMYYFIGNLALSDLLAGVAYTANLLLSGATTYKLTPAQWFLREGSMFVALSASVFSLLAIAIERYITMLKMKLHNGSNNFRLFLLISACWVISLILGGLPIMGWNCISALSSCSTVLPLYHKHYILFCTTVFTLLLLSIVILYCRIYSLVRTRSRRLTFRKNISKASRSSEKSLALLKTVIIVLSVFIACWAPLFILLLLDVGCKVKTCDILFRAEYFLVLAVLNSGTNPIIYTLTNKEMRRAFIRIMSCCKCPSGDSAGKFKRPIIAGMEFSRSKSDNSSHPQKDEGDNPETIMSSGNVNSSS
Sequence of Lytic switch protein BZLF1 (P03206 whole entry): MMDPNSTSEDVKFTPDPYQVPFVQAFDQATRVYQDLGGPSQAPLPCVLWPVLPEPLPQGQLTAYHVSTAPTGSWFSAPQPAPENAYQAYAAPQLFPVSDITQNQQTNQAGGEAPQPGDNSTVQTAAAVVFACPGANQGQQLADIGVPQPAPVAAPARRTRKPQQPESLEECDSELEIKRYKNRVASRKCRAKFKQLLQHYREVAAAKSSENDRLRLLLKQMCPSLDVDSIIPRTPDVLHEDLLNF
Sequence of Photoreceptor-specific nuclear receptor (Q9Y5X4 whole entry): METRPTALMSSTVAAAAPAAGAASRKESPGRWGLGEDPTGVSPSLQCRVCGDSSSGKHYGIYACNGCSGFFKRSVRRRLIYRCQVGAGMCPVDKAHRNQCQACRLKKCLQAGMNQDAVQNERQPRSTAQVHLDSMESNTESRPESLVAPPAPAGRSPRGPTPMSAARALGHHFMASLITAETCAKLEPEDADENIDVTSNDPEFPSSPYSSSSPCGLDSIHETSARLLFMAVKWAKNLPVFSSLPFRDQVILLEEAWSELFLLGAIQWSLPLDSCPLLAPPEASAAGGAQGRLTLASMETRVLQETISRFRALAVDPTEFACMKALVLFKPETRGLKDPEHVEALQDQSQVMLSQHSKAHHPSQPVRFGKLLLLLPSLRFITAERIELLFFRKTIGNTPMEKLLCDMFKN
Sequence of Neuropeptide Y receptor type 1 (P25929 whole entry): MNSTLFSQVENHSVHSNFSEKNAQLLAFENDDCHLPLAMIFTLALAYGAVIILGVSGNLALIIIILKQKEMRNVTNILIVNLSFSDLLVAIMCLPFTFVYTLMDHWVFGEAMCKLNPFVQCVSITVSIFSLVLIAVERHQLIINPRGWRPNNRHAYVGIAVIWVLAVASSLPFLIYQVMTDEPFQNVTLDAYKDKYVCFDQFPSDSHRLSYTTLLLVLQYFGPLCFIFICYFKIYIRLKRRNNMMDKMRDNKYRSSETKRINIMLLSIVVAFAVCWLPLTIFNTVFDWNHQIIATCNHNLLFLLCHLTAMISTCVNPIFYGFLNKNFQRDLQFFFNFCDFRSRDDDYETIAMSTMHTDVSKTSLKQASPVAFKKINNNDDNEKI

Turning to `Fc1ccc(-n2nnc(-c3cnc4ccccc4c3)n2)cc1`, the AC50 in assay [1] is 39.5 µM (active); in assay [2], 1.23 µM (active); in assay [3], 2.15 µM (active); in assay [4] it was > 52 µM (inactive). For the same compound, the IC50 in assay [5] and in assay [6] was > 100 µM (not active) throughout.

For the compound `CCCCOc1ccc(C2=NNC(=O)CC2)cc1`, the IC50 in [7] was 4.54 µM (active); in [8], 13.6 µM (not active).

For `Cc1cccc(C2(c3cccc(C)c3)CC2C(=O)Nc2ccc([N+](=O)[O-])cc2O)c1` (stereo not drawn), the IC50 in assay [9] was 45.4 µM (active); in [10], 17 µM (active); in [12], > 80 µM (inactive); in assay [13], > 50 µM (not active); in assay [14], 5.46 µM (active). For the same compound, in assay [11], the AC50 is 7.83 µM (active).

Turning to `COc1cc2cc(C(c3nnnn3C(C)(C)C)N3CCc4ccccc43)c(O)nc2cc1OC` (stereo not drawn), the IC50 in assay [15] was > 100 µM (active).

With `COc1cc2ccc(=O)oc2c(O)c1O` [FRAXETIN], the figures for the AC50 in assay [16] and in assay [17] were 25.1 µM (inconclusive) and 39.8 µM (inconclusive), respectively.

A word on the CC50: it is the concentration at which the toxic effect on the cells reaches its halfway point. With `COc1cccc(-n2c(/C=C/c3ccc(O)c(O)c3)nc3ccccc3c2=O)c1`, the IC50 in [18] is > 100 µM (active); in [19], > 50 µM (not active). Moreover, the CC50 in assay [20] was 23.1 µM (active).

For orientation: EC50 means the concentration at which the effect is half-maximal. With `COc1ccc(-c2n[nH]c(SCC(=O)N(C3CCCCC3)C3CCCCC3)n2)cc1`, the figures for the concentration giving a half-maximal response (EC50) in [21], in [22] and in assay [23] were > 50 µM (not active), > 10 µM (not active) and > 50 µM (not active), respectively.

Regarding `CC(C)(C)NC(=O)CN(Cc1ccco1)C(=O)CCC(=O)Nc1nccs1`, the values for the IC50 in assay [24] and in assay [25] were > 39.8 µM (not active) and 32.7 µM (not active), respectively.

`COC(=O)C(Cc1ccc(N(CCCl)CCCl)cc1)/N=C/c1ccccc1O` (stereo not drawn): in assay [26], the AC50 was 0.899 µM (active). Moreover, the IC50 in assay [27] is 0.103 µM (active); in assay [28], > 80 µM (inactive).

As for `COc1ccc(NC(=O)COc2ccc3c(C)cc(=O)oc3c2)cc1S(=O)(=O)N1CCCCC1`, the IC50 in assay [29] is > 111 µM (not active); in assay [30] it was 5.29 µM (active).

For the compound `C=C(C)[C@@]12OC3(c4ccccc4)O[C@@H]1C1[C@@H]4O[C@]4(CO)[C@@H](O)[C@]4(O)C(=O)C(C)=C[C@H]4[C@@]1(O3)[C@H](C)[C@H]2OC(=O)/C=C/C=C/c1ccccc1` (stereo partly drawn), the CC50 was > 100 µM (active) in assay [31] and > 25 µM (active) in [34]. For the same compound, the results for the EC50 in assay [32], in assay [33] and in assay [35] were < 0.1 µM (active), > 60 µM (not active) and < 0.004 µM (active), respectively. In addition, the IC50 in assay [28] was > 80 µM (inactive).

As for `Cc1cc(C(=O)CN(C)CC(=O)NC2CC2)c(C)n1Cc1ccccc1`, the EC50 in [36] is given as > 30 µM (not active).

For `Cc1nc2c(C(=O)NCCc3ccccc3Cl)cnn2c(O)c1Cl`, the IC50 in [37] was 23.9 µM (active).
